Test results reported in US20070037882A1, “Remedy for cerebral neurodegenerative diseases using ppar agonist” (Astellas Pharma Inc., priority 2003, published 2007).

Experiments:
SH-SY5Y cells [1] = experiment: Staurosporine-induced cellular death model, viable cells by MTT assay; format: cell-based, human; settings: for suppression of staurosporine-induced cellular death (in words): SH-SY5Y; for MTT assay A490: staurosporine + (150 nM), 24 h
Description: Cellular death was induced by adding a protein kinase inhibitor staurosporine to a neuroblastoma SH-SY5Y to examine the effect of PPARδ agonists on the suppression of cellular death. SH-SY5Y cells were plated on a 96-well plate (70,000 cell/well in 100 μl DMEM low glucose 10% fetal bovine serum) for overnight culturing, from which the culture medium was removed with an aspirator. Then, DMEM without serum was added at 50 μl/well. […] 2 hours later, DMEM without serum containing 900 nM staurosporine was added at 20 μl/well. (Staurosporine to a final 150 nM concentration) (For a control, DMEM without serum alone was added.) 24 hours later, the viable cell count was calculated from the absorbance at 490 nm, using Celltiter 96 Aqueous one solution cell proliferation assay kit (Promega).

SH-SY5Y cells [2] = experiment: Thapsigargin-induced cellular death model, dead cells by LDH assay; format: cell-based, human; settings: thapsigargin + (100 nM), 24 h, concentration not given
Description: SH-SY5Y cells were plated on a 96-well plate (70,000 cell/well in 100 μl DMEM low glucose 10% fetal bovine serum) for overnight culturing, from which the culture medium was removed with an aspirator. Then, DMEM without serum was added at 50 μl/well. […] 2 hours later, DMEM without serum containing 600 nM thapsigargin was added at 20 μl/well. (Thapsigargin to a final 100 nM concentration) (For a control, DMEM without serum alone was added.) 24 hours later, the absorbance at 490 nm was assayed with a cytotoxicity detection kit (Roche) to assay the LDH activity. […] An apparent correlation between the result of the viable cell count as determined by MTT assay in Example 1 and the LDH activity is shown. The above results clearly indicate that the PPARδ agonists are effective on the suppression of the thapsigargin-induced cellular death.

SH-SY5Y cells [3] = experiment: MPP+-induced cellular death model, apoptosis by caspase-3/7 assay; format: cell-based, human; settings: for suppression of caspase-3/7 activity (in words): SH-SY5Y, MPP+; for Caspase 3/7 activity: MPP+ + (3 mM), 3 h
Description: SH-SY5Y cells were spread on a 96-well plate (70,000 cell/well in 100 μl DMEM low glucose 10% fetal bovine serum) for overnight culturing, from which the culture medium was removed with an aspirator. Then, DMEM without serum was added at 50 μl/well. […] 2 hours later, DMEM without serum containing 18 mM MPP^+ was added at 20 μl/well. (MPP^+ to a final 3 mM concentration.) (For control, DMEM without serum alone was added.)
3 hours later, the caspase-3/7 activity was assayed with Apo-One homogenous Caspase-3/7 assay kit (Promega).

[4] = tested on: GAL4-murine PPARγ fusion protein; experiment: GAL4 reporter gene assay in CV-1 cells, murine PPARγ; format: cell-based; settings: second 'Murine PPAR-•' line (taken as γ), pG5luc reporter
[5] = tested on: GAL4-human PPARα fusion protein; experiment: GAL4 reporter gene assay in CV-1 cells, human PPARα; format: cell-based; settings: first 'Human PPAR-•' line (taken as α), pG5luc reporter
[6] = tested on: GAL4-murine PPARα fusion protein; experiment: GAL4 reporter gene assay in CV-1 cells, murine PPARα; format: cell-based; settings: first 'Murine PPAR-•' line (taken as α), pG5luc reporter
[7] = tested on: GAL4-human PPARδ fusion protein; experiment: GAL4 reporter gene assay in CV-1 cells, human PPARδ; format: cell-based; settings: third 'Human PPAR-•' line (taken as δ), pG5luc reporter
PPARδ = target: T1, PPARδ (Homo sapiens, UniProt Q03181); settings: FEBS Letters 473 (2000) 333-336; read-out: affinity to PPARδ (Ki); cited from earlier work
T1 sequence (Q03181 1-441): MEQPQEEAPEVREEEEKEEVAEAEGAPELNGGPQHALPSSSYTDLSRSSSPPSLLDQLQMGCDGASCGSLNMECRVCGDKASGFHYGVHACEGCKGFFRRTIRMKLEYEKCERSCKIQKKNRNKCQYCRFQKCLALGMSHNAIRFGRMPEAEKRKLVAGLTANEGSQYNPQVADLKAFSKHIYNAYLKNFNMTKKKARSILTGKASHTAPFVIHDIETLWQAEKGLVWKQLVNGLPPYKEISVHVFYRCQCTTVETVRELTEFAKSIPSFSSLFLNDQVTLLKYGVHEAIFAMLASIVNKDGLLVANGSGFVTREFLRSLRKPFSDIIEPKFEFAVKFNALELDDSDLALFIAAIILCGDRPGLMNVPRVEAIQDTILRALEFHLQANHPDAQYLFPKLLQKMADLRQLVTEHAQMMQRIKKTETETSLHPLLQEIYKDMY

[8] = tested on: GAL4-human PPARγ fusion protein; experiment: GAL4 reporter gene assay in CV-1 cells, human PPARγ; format: cell-based; settings: second 'Human PPAR-•' line (taken as γ), pG5luc reporter
[9] = tested on: GAL4-murine PPARδ fusion protein; settings: third 'Murine PPAR-•' line (taken as δ); CV-1 cells, pG5luc reporter
PPARγ = target: T2, PPARγ (Homo sapiens, UniProt P37231); settings: FEBS Letters 473 (2000) 333-336; read-out: affinity to PPARγ (Ki); cited from earlier work
T2 sequence (P37231 1-505): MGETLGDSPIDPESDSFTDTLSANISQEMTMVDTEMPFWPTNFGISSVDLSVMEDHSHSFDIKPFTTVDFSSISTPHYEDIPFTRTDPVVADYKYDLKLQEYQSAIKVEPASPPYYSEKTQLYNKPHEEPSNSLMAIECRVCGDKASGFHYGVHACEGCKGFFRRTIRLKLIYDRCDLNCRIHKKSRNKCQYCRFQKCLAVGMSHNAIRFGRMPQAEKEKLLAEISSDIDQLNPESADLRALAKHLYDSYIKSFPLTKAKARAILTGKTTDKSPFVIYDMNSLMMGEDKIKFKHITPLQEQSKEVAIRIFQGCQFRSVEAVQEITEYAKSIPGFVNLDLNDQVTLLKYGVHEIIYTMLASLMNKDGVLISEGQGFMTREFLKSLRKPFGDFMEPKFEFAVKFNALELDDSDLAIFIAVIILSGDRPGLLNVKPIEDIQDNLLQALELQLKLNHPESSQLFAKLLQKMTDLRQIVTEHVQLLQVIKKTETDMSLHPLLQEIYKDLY

[10] = 2nd '+' line (presumably 0.1 μM)
[11] = 4th '+' line (presumably 10 μM)
[12] = 5th '+' line (presumably 100 μM)

Structure (SMILES)	suppression of staurosporine-induced cellular death (in words) (SH-SY5Y cells [1])	MTT assay A490 (SH-SY5Y cells [1]; compound 0.1 μM)	MTT assay A490 (SH-SY5Y cells [1]; compound 1 μM)	MTT assay A490 (SH-SY5Y cells [1]; compound 10 μM)	LDH release A490 (SH-SY5Y cells [2]; [10])	LDH release A490 (SH-SY5Y cells [2]; 3rd '+' line (presumably 1 μM))	LDH release A490 (SH-SY5Y cells [2]; [11])	LDH release A490 (SH-SY5Y cells [2]; [12])	suppression of caspase-3/7 activity (in words) (SH-SY5Y cells [3])	Caspase 3/7 activity (SH-SY5Y cells [3]; compound 0.1 μM) [RFLU]	Caspase 3/7 activity (SH-SY5Y cells [3]; compound 1 μM) [RFLU]	Caspase 3/7 activity (SH-SY5Y cells [3]; compound 10 μM) [RFLU]	Caspase 3/7 activity (SH-SY5Y cells [3]; compound 100 μM) [RFLU]	also measured
Cc1cc(SCc2sc(-c3ccc(C(F)(F)F)cc3)nc2C)ccc1OCC(=O)O [GW501516]	suppression of staurosporine-induced cellular death in a concentration-dependent manner	0.5179 ± 0.0140	0.5367 ± 0.0149	0.5860 ± 0.0086	0.6225 ± 0.0229	0.5750 ± 0.0212	0.3325 ± 0.0259	0.6675 ± 0.0328	suppress the activity of caspase-3/7 in a concentration-dependent manner	847552 ± 36575	621059 ± 26590	798646 ± 54365	398604 ± 55698	–
CCCc1c(OCCCOc2ccc(OCC(=O)O)cc2)ccc(C(C)=O)c1O [L-165041, 4-[3-[2-propyl-3-hydroxy-4-acetyl]phenoxy]propyloxyphenoxy acetic acid]	suppression of staurosporine-induced cellular death in a concentration-dependent manner	0.5523 ± 0.0209	0.5532 ± 0.0056	0.5167 ± 0.0098	0.6758 ± 0.0183	0.6295 ± 0.0139	0.6029 ± 0.0135	0.2987 ± 0.0128	suppress the activity of caspase-3/7 in a concentration-dependent manner	1430206 ± 30804	1168920 ± 30554	646736 ± 26366	572152 ± 33695	Concentration for action exertion [4]: 10 M; Concentration for action exertion [5]: 10 M; Concentration for action exertion [6]: >100 M; Concentration for action exertion [7]: 0.1 M; Ki (PPARδ): 6 nM; Concentration for action exertion [8]: 10 M; Concentration for action exertion [9]: 0.1 M; Ki (PPARγ): 730 nM
